The values that follow are results of earlier work, collected in patent US20080193567A1, “Pharmaceutical Canscora Diffusa-Containing Composition” (priority 2004, published 2008).

The conditions of data set [1]: interpreted as an effect against stress and anxiety.
The test system of data set [2] is Mycobacterium tuberculosis.
For data set [3] the following is noted: animal experiments.

Take dichotosinin: the adaptogenic effect result in data set [1] was ““adaptogenic” effect”.

Take `COc1ccc([C@@H]2CCc3c(O[C@@H]4O[C@H](CO)[C@@H](O)[C@H](O)[C@H]4O)cc(O)cc3O2)cc1OC` [Diffutin]: the adaptogenic effect entry in data set [1] is reported as ““adaptogenic” effect”.

Turning to `COc1ccc([C@@H]2CCc3c(O[C@@H]4OC(CO)[C@@H](O)[C@H](O)C4O)cc(OC)cc3O2)cc1` (some centres unmarked) [dichotosin], the adaptogenic effect result in data set [1] is recorded as ““adaptogenic” effect”.

Regarding `O=c1c2cc(O)c(O)cc2oc2cc(O)c([C@@H]3O[C@H](CO)[C@@H](O)[C@H](O)[C@H]3O)c(O)c12` [magniferin], in data set [2], the “effect against Mycobacterium tuberculosis” value is “small effect”. In data set [3], the spermicidal effect entry is recorded as “spermicidal effect”.
